This is an account of results in ChEMBL document CHEMBL3272353, “4-Substituted semicarbazones of mono- and dichlorobenzaldehydes as antihypertensive agents” (J Med Chem, 1977).

Data set [1] concerns Canis familiaris. Description: Antihypertensive activity in normotensive dog assessed as reduction in mean arterial blood pressure at 5 to 10 mg/kg, po administered in gelatin capsules. It counts as functional, organism-based. The following applies: Canis lupus familiaris, Artery.
In data set [2] the test system is Canis familiaris. Description: Toxicity in dog assessed ataxia at 10 mg/kg, po administered in gelatin capsules. It is filed as organism-based, Canis lupus familiaris. Further details: dose 10 mg/kg, route oral. The following applies: in vivo.
For data set [3], the system named is Rattus norvegicus. Description: Antihypertensive activity in spontaneously hypertensive rat assessed as reduction in mean arterial blood pressure at 10 mg/kg, po administered as two dose at 24 hrs interval measured 4 hrs post second dose relative to control. It is filed as functional, Artery. Further details: scale not given: the % may be the effect or the level left.

In data set [4] the test system is Rattus norvegicus. Description: Antihypertensive activity in spontaneously hypertensive rat assessed as reduction in mean arterial blood pressure at 5 mg/kg, po administered as two dose at 24 hrs interval measured 4 hrs post second dose relative to control. It counts as functional, Artery. Further details: scale not given: the % may be the effect or the level left.

For data set [5], the system named is Rattus norvegicus. Description: Toxicity in spontaneously hypertensive rat assessed as adverse effect at 5 to 10 mg/kg, po administered as two dose at 24 hrs interval. More on the design: dose 5-10 mg/kg, route oral. It is filed as organism-based. The following applies: in vivo.
The subject of data set [6] is Rattus norvegicus. Description: Toxicity in spontaneously hypertensive rat assessed as general depression of cardiovascular function at 100 mg/kg, po administered as two dose at 24 hrs interval. It is filed as organism-based, Heart. More on the design: dose 100 mg/kg, route oral. The note with it: in vivo.
Data set [7] has as its system Rattus norvegicus. Description: Antihypertensive activity in spontaneously hypertensive rat assessed as reduction in mean arterial blood pressure at 100 mg/kg, po administered as two dose at 24 hrs interval measured 4 hrs post second dose relative to control. More on the design: scale not given: the % may be the effect or the level left. It is filed as functional, Artery.

For data set [8], the system named is Rattus norvegicus. Description: Antihypertensive activity in spontaneously hypertensive rat assessed as reduction in mean arterial blood pressure at 25 mg/kg, po administered as two dose at 24 hrs interval measured 4 hrs post second dose relative to control. It is filed as functional, Artery. More on the design: scale not given: the % may be the effect or the level left.

SMILES strings stand for the structures. The source made the active and inactive calls. No cut-off for these calls is given here.

`CN(C)C(=O)N/N=C/c1c(Cl)cccc1Cl`: in the data set with Canis familiaris [1], the result was inactive. Besides, the Activity entry in the data set on Canis familiaris [2] was “Toxic”; in the data set on Rattus norvegicus [3], 46%; in the data set on Rattus norvegicus [4] it was 31%; in the data set with Rattus norvegicus [5] it was “Non-toxic”; in the data set with Rattus norvegicus [6] it was “Toxic”.

Regarding `CN(C)C(=O)N/N=C/c1ccc(Cl)cc1`, the Activity in the data set with Rattus norvegicus [7] is on record as 16%.

For the molecule `CNC(=O)N/N=C/c1c(Cl)cccc1Cl`, in the data set on Rattus norvegicus [7], the Activity is reported as 32%.

Take `N=C(N)N/N=C/c1c(Cl)cccc1Cl` [GUANABENZ]: the Activity in the data set with Rattus norvegicus [8] was determined as 26%.

Turning to `O=C(N/N=C/c1c(Cl)cccc1Cl)N1CCOCC1`, the Activity in the data set with Rattus norvegicus [7] amounted to 13%.
